Legend:
Assay type in all cases: in vivo
plants = experiment: Test D post-emergence, other plants of Tables D2 and D4; settings: post-emergence
Method: A formulation containing 50 g/L of the test chemical was prepared by dissolving the active ingredient in a mixture of organic solvents and emulsifier, details of which are provided in the table. This formulation was then mixed with a small, variable amount of acetone to aid dissolution, before addition of a 0.2% v/v aqueous solution of an adjuvant, as the aqueous diluent, to form an aqueous spray solution which contains a predetermined concentration of the active ingredient.
This aqueous spray solution was then sprayed onto plants including maize and wheat that had been seed treated with a herbicide safener, after one day's cultivation (for pre-emergence) or after about 12 days' cultivation (for post-emergence). The plants were grown from seeds sown in standard soil, placed in a glasshouse under controlled conditions (at 24/18° C. or 20/16° C., day/night; 16 h light; 65% humidity). After spray application the plants were then grown in a glasshouse under the same conditions and watered twice daily. After 15 d for post-emergence and 20 DAA for pre-emergence the test was evaluated (100=total damage to plant; 0=no damage to plant).

[1] = tested on: barnyardgrass (Echinochloa crus-galli, ECHCG); experiment: Test A pre-emergence, barnyardgrass; settings: after 13 d
Procedure, shortened: (§1)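 After sowing in pots and a single day of glasshouse cultivation, the soil was treated with an aqueous spray of the compound (acetone/water 50:50, 0.5% Tween 20) giving 15.625, 62.5 or 250 g/ha. Evaluation after 13 d used a scale where 0 meant no damage and 100 total damage.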

[2] = tested on: redroot pigweed (Amaranthus retroflexus, AMARE); experiment: Test A pre-emergence, redroot pigweed; settings: after 13 d
Procedure, shortened: as §1

## CN1CC(c2cc(C(F)(F)F)n(C)n2)C(C(=O)Nc2ccc(F)cc2F)C1=O (racemic) [Compound 6]
plants; rate 130, evaluated after 15 d
  damage to plant (100=total damage to plant; 0=no damage to plant), ABUTH: 0
  damage to plant (100=total damage to plant; 0=no damage to plant), AMARE: 0
  damage to plant (100=total damage to plant; 0=no damage to plant), BIDPI: 0
  damage to plant (100=total damage to plant; 0=no damage to plant), BRAPL: 50
  damage to plant (100=total damage to plant; 0=no damage to plant), CYPES: 0
  damage to plant (100=total damage to plant; 0=no damage to plant), DIGSA: 0
  damage to plant (100=total damage to plant; 0=no damage to plant), ECHCG: 0
  damage to plant (100=total damage to plant; 0=no damage to plant), ELEIN: 0
  damage to plant (100=total damage to plant; 0=no damage to plant), EPHHL: 10
  damage to plant (100=total damage to plant; 0=no damage to plant), GLXMA: 0
  damage to plant (100=total damage to plant; 0=no damage to plant), IPOHE: 0
  damage to plant (100=total damage to plant; 0=no damage to plant), ORYSA: 0
  damage to plant (100=total damage to plant; 0=no damage to plant), PANMI: 0
  damage to plant (100=total damage to plant; 0=no damage to plant), SETFA: 0
  damage to plant (100=total damage to plant; 0=no damage to plant), SORVU: 0
plants; rate 250, evaluated after 15 d
  damage to plant (100=total damage to plant; 0=no damage to plant), ABUTH: 10
  damage to plant (100=total damage to plant; 0=no damage to plant), BIDPI: 0
  damage to plant (100=total damage to plant; 0=no damage to plant), BRAPL: 60
  damage to plant (100=total damage to plant; 0=no damage to plant), CYPES: 0
  damage to plant (100=total damage to plant; 0=no damage to plant), DIGSA: 60
  damage to plant (100=total damage to plant; 0=no damage to plant), ECHCG: 50
  damage to plant (100=total damage to plant; 0=no damage to plant), ELEIN: 0
  damage to plant (100=total damage to plant; 0=no damage to plant), EPHHL: 20
  damage to plant (100=total damage to plant; 0=no damage to plant), GLXMA: 0
  damage to plant (100=total damage to plant; 0=no damage to plant), IPOHE: 10
  damage to plant (100=total damage to plant; 0=no damage to plant), ORYSA: 0
  damage to plant (100=total damage to plant; 0=no damage to plant), PANMI: 0
  damage to plant (100=total damage to plant; 0=no damage to plant), SETFA: 20
  damage to plant (100=total damage to plant; 0=no damage to plant), SORVU: 0
plants; rate 500, evaluated after 15 d
  damage to plant (100=total damage to plant; 0=no damage to plant), ABUTH: 20
  damage to plant (100=total damage to plant; 0=no damage to plant), AMARE: 20
  damage to plant (100=total damage to plant; 0=no damage to plant), BIDPI: 0
  damage to plant (100=total damage to plant; 0=no damage to plant), BRAPL: 70
  damage to plant (100=total damage to plant; 0=no damage to plant), CYPES: 0
  damage to plant (100=total damage to plant; 0=no damage to plant), DIGSA: 70
  damage to plant (100=total damage to plant; 0=no damage to plant), ECHCG: 70
  damage to plant (100=total damage to plant; 0=no damage to plant), ELEIN: 0
  damage to plant (100=total damage to plant; 0=no damage to plant), EPHHL: 30
  damage to plant (100=total damage to plant; 0=no damage to plant), GLXMA: 0
  damage to plant (100=total damage to plant; 0=no damage to plant), IPOHE: 20
  damage to plant (100=total damage to plant; 0=no damage to plant), ORYSA: 0
  damage to plant (100=total damage to plant; 0=no damage to plant), PANMI: 0
  damage to plant (100=total damage to plant; 0=no damage to plant), SETFA: 70
  damage to plant (100=total damage to plant; 0=no damage to plant), SORVU: 0
[1]; Pre-Emergence at 15.625 g/ha
  damage to plant (100=total damage; 0=no damage) ECHCG: 80
[1]; Pre-Emergence at 62.5 g/ha
  damage to plant (100=total damage; 0=no damage) ECHCG: 90
[1]; Pre-Emergence at 250 g/ha
  damage to plant (100=total damage; 0=no damage) ECHCG: 90
[2]; Pre-Emergence at 15.625 g/ha
  damage to plant (100=total damage; 0=no damage) AMARE: 20
[2]; Pre-Emergence at 62.5 g/ha
  damage to plant (100=total damage; 0=no damage) AMARE: 20
[2]; Pre-Emergence at 250 g/ha
  damage to plant (100=total damage; 0=no damage) AMARE: 50

Source: US20220281848A1, “PYRAZOLE-SUBSTITUTED PYRROLIDINONES AS HERBICIDES” (FMC Corporation, priority 2019, published 2022)
